pIC50, pKi: −log10 of the molar value.
Tests used:
[1] = target: Tyrosine-protein kinase Fyn (Homo sapiens, UniProt P06241); assay: biochemical; assay type: cell-based, Insect cells; conditions: insect cells;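 also: enzymatic inhibition of Fyn kinase activity measured with Poly(Glu:Tyr) as the phosphorylation substrate; in other assays of this panel Not Active means under 50% inhibition at 10 µM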
[2] = DRUGMATRIX: Purinergic P2X radioligand binding (ligand: [3H] alpha, beta-Methylene-ATP); assay type: cell membranes, Oryctolagus cuniculus, New Zealand albino, Urinary bladder, Membrane; conditions: Not Active = under 50% inhibition at 10 µM
[3] = target: T1, Muscarinic acetylcholine receptor M4 (Homo sapiens, UniProt P08173); assay type: cell membranes, CHO-K1, Membrane; conditions: cho-k1; also: in other assays of this panel Not Active means under 50% inhibition at 10 µM
T1 sequence (P08173 whole entry): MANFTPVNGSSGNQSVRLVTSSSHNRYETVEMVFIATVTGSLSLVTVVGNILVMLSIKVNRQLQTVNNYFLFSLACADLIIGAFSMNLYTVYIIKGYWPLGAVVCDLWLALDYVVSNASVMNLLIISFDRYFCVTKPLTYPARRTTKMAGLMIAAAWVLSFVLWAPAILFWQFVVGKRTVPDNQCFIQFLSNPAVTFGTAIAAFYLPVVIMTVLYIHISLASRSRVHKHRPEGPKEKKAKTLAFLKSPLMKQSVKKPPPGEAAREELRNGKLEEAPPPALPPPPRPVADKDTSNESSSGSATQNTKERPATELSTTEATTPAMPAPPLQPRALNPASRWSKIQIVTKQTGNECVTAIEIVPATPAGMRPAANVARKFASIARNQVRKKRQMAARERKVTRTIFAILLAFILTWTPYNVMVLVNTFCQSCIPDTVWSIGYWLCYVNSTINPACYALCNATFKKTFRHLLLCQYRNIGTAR

[4] = DRUGMATRIX: Phosphodiesterase PDE4 enzyme inhibition (substrate: [3H]cAMP + cAMP); conditions: u-937; Not Active = under 50% inhibition at 10 µM
Nitric oxide synthase 1 = Nitric oxide synthase 1 (Rattus norvegicus, UniProt P29476); assay type: tissue-based, Cerebellum; also: in other assays of this panel Not Active means under 50% inhibition at 10 µM
[5] = target: Mitogen-activated protein kinase 14 (Homo sapiens, UniProt Q16539); set-up: species or system Escherichia coli;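 also: inhibition of p38alpha enzyme activity in a biochemical kinase assay, with myelin basic protein serving as substrate; in other assays of this panel Not Active means under 50% inhibition at 10 µM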
[6] = target: 5-hydroxytryptamine receptor 2B (Homo sapiens, UniProt P41595); assay type: cell membranes, CHO-K1, Membrane; conditions: for IC50: cho-k1
Cytochrome P450 2A6 = target: T2, Cytochrome P450 2A6 (Homo sapiens, UniProt P11509); conditions: bti-tn-5b1-4; also: in other assays of this panel Not Active means under 50% inhibition at 10 µM
T2 sequence (P11509 whole entry): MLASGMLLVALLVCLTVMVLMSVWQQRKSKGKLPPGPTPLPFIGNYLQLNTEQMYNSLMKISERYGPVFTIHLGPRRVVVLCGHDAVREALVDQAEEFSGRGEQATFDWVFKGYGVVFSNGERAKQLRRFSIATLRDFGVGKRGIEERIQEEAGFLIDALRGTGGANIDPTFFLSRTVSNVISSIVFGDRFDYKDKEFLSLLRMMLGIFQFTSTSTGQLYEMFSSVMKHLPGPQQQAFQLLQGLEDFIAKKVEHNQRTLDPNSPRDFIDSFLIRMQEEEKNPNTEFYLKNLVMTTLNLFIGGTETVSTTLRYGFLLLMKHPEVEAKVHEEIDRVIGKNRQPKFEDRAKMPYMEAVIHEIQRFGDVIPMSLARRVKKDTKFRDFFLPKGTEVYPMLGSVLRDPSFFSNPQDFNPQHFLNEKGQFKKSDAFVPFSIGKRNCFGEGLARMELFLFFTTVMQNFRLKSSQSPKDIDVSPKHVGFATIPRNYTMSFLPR

[7] = DRUGMATRIX: Glutamate, AMPA radioligand binding (ligand: [3H] AMPA); assay type: cell membranes, Rattus norvegicus, Wistar, Cerebral cortex, Membrane; conditions: Not Active = under 50% inhibition at 10 µM
[8] = target: 5-hydroxytryptamine receptor 6 (Homo sapiens, UniProt P50406); assay type: cell membranes, HeLa, Membrane; conditions: for IC50: hela
[9] = DRUGMATRIX: Serotonin (5-Hydroxytryptamine) 5-HT3 radioligand binding (ligand: [3H] GR-65630); assay type: cell membranes, Membrane; conditions: hek293, Not Active = under 50% inhibition at 10 µM
[10] = target: T3, Polyunsaturated fatty acid lipoxygenase ALOX15 (Oryctolagus cuniculus, UniProt P12530); assay: biochemical; assay type: tissue-based, Reticulocytes; conditions: reticulocytes
T3 sequence (P12530 whole entry): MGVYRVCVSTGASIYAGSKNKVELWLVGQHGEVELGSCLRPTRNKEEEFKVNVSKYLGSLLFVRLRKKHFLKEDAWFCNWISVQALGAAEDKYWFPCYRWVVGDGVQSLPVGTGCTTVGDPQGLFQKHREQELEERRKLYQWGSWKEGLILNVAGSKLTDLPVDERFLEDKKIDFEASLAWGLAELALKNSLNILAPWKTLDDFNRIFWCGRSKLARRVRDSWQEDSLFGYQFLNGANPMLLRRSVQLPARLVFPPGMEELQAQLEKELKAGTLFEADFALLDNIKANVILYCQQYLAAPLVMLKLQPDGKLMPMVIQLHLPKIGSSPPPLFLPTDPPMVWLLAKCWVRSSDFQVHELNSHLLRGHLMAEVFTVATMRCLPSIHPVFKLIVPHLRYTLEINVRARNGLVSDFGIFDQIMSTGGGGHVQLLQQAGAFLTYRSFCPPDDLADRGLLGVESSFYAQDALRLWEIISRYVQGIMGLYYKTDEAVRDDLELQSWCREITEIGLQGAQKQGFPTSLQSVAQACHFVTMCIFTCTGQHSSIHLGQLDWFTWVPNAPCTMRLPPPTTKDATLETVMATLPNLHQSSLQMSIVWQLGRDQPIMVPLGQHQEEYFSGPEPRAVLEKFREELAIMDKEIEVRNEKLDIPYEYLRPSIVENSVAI

Endothelin-1 receptor = target: T4, Endothelin-1 receptor (Homo sapiens, UniProt P25101); assay type: cell membranes, Membrane; conditions: cho-k1; also: in other assays of this panel Not Active means under 50% inhibition at 10 µM
T4 sequence (P25101 whole entry): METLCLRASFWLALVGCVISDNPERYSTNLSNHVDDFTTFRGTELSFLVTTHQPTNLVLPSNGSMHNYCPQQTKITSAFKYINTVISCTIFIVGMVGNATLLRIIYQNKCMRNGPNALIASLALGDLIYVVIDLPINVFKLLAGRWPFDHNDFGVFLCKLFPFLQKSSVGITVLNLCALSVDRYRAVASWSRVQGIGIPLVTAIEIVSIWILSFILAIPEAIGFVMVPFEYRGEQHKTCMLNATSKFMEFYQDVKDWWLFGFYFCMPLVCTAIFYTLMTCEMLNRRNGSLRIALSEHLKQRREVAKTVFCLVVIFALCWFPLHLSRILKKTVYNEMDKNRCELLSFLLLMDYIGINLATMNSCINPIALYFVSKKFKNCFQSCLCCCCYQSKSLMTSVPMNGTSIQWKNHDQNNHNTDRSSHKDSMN

[11] = DRUGMATRIX: Sodium/nucleoside co-transporter radioligand binding (ligand: nitrobenzylthioinosine); assay type: cell membranes, Cavia porcellus, Dunkin-Hartley, Cerebral cortex, Membrane; conditions: Not Active = under 50% inhibition at 10 µM

Chain of Mitogen-activated protein kinase 14 (Q16539 whole entry): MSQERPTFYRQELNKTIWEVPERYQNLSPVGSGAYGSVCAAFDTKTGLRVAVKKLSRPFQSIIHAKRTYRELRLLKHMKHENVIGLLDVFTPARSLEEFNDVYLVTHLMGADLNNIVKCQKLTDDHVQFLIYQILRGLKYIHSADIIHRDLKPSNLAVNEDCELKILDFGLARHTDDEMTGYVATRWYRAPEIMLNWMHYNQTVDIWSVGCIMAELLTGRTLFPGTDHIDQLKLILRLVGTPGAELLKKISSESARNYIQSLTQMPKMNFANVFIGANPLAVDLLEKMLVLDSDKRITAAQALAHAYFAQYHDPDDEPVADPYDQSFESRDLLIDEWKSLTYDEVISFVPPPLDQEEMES
Chain of 5-hydroxytryptamine receptor 2B (P41595 whole entry): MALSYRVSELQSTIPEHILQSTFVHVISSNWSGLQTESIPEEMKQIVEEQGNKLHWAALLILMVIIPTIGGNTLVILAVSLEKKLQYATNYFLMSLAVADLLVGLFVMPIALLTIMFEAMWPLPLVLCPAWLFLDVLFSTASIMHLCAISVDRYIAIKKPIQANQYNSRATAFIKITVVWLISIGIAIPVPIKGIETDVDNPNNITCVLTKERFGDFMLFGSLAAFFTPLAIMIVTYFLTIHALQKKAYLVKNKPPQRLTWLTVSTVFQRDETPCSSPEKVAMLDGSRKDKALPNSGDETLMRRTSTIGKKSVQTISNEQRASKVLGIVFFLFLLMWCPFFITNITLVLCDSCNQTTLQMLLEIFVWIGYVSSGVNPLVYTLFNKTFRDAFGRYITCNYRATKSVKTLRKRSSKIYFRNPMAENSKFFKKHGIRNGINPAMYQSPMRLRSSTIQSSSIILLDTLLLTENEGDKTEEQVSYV
Chain of Tyrosine-protein kinase Fyn (P06241 whole entry): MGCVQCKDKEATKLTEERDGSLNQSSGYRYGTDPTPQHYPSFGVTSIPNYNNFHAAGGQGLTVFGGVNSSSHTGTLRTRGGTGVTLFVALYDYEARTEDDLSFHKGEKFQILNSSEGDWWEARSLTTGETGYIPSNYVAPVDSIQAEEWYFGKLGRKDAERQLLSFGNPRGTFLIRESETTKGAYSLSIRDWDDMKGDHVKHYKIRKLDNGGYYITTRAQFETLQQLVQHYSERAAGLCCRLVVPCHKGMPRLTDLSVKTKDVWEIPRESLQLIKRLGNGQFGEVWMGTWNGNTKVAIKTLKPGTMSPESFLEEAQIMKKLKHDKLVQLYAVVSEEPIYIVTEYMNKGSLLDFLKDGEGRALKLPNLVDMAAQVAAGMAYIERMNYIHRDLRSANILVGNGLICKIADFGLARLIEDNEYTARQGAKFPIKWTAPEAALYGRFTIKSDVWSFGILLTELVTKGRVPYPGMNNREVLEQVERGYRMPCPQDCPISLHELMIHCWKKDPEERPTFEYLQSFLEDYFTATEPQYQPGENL
Chain of Nitric oxide synthase 1 (P29476 whole entry): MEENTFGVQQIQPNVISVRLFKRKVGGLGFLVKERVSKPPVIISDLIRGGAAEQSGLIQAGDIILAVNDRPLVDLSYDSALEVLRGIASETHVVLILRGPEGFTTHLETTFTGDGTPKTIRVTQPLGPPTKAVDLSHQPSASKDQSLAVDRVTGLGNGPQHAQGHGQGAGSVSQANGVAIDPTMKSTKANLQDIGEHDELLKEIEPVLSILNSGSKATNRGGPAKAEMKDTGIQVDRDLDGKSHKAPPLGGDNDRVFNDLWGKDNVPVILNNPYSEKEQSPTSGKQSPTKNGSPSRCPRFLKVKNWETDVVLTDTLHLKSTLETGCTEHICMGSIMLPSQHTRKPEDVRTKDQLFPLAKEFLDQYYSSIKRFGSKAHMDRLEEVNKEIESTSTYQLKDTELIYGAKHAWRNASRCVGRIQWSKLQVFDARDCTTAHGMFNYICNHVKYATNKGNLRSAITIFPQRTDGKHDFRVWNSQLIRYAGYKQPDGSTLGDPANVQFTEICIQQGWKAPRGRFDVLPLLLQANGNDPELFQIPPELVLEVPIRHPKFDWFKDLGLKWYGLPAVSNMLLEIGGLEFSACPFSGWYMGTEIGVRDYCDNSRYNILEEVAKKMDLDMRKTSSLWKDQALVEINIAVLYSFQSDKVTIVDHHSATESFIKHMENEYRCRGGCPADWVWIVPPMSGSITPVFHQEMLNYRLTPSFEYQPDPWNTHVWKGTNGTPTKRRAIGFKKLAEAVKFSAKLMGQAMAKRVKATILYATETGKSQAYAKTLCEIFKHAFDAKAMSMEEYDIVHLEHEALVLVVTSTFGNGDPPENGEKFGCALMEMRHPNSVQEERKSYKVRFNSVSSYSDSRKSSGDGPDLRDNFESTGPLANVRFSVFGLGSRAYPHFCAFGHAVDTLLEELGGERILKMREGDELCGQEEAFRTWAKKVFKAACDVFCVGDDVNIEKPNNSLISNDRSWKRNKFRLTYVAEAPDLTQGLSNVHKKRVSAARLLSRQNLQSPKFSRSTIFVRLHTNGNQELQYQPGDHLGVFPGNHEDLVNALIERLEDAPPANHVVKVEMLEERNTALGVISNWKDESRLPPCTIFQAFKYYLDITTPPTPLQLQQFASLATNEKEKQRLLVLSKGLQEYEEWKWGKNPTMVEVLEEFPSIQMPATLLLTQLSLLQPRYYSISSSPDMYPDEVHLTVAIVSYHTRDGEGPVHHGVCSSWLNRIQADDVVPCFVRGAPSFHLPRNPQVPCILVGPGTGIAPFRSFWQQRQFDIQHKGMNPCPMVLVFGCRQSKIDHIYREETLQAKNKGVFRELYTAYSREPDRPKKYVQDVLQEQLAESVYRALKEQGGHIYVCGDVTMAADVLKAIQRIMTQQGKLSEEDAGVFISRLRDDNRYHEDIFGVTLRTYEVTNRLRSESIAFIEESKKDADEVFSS
Chain of 5-hydroxytryptamine receptor 6 (P50406 whole entry): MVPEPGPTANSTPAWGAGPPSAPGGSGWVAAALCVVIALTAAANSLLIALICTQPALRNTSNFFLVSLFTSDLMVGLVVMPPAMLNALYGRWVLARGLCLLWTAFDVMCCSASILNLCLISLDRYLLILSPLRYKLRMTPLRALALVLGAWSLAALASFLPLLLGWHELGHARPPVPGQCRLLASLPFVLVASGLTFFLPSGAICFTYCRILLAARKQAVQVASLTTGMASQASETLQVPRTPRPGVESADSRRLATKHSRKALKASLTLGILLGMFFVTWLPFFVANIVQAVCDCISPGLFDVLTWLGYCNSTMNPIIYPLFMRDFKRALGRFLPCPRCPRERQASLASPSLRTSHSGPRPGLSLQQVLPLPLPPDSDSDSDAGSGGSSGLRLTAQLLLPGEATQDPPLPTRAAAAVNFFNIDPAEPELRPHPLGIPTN

Row | Structure (SMILES) | IC50 [1] | IC50 [2] | Ki [2] | IC50 [3] | IC50 [4] | Ki [4] | IC50 (Nitric oxide synthase 1) | IC50 [5] | IC50 [6] | IC50 (Cytochrome P450 2A6) | Ki (Cytochrome P450 2A6) | IC50 [7] | Ki [7] | IC50 [8] | IC50 [9] | Ki [9] | IC50 [10] | IC50 (Endothelin-1 receptor) | IC50 [11] | Ki [11] | also measured
1 | N=C(N)NCCCCNC(=N)N.O=S(=O)(O)O [ARCAINE SULFATE] | Not Active | Not Active | Not Active | Not Active | Not Active | Not Active | Not Active | Not Active | Not Active | Not Active | Not Active | Not Active | Not Active | Not Active | Not Active | Not Active | Not Active | Not Active | Not Active | Not Active | 
2 | O=C1OCCN1/N=C/c1ccc([N+](=O)[O-])o1 [FURAZOLIDONE] | Not Active | Not Active | Not Active | Not Active | Not Active | Not Active | Not Active | Not Active | Not Active |  |  | Not Active | Not Active | Not Active | Not Active | Not Active | Not Active | Not Active | Not Active | Not Active | 
3 | CNCCC=C1c2ccccc2CCc2ccccc21 [NORTRIPTYLINE] | Not Active | Not Active | Not Active |  | Not Active | Not Active | Not Active | Not Active |  | Not Active | Not Active | Not Active | Not Active |  | Not Active | Not Active | Not Active | Not Active | Not Active | Not Active | pIC50 ([6]; read-out: IC50): 6.87; pKi ([6]; read-out: Ki): 7.07; pIC50 ([8]; read-out: IC50): 6.26; pKi ([8]; read-out: Ki): 6.59
4 | Oc1c(Cl)cc(Cl)cc1Sc1cc(Cl)cc(Cl)c1O [BITHIONOL] | Not Active | Not Active | Not Active | Not Active | Not Active | Not Active | Not Active |  |  | Not Active | Not Active | Not Active | Not Active | Not Active | Not Active | Not Active | Not Active | Not Active | Not Active | Not Active | pIC50 ([5]; read-out: IC50): 6.50
5 | CC(C)NC[C@H](O)COc1cccc2[nH]ccc12 | Not Active | Not Active | Not Active | Not Active | Not Active | Not Active | Not Active | Not Active | Not Active |  |  | Not Active | Not Active | Not Active | Not Active | Not Active | Not Active | Not Active | Not Active | Not Active | 
6 | O=P1(NCCCl)OCCCN1CCCl (stereo unspecified) [IFOSFAMIDE] | Not Active | Not Active | Not Active | Not Active | Not Active | Not Active | Not Active | Not Active | Not Active |  |  | Not Active | Not Active | Not Active | Not Active | Not Active | Not Active | Not Active | Not Active | Not Active | 
7 | NCC(=O)O [GLYCINE] | Not Active | Not Active | Not Active | Not Active | Not Active | Not Active | Not Active | Not Active | Not Active |  |  | Not Active | Not Active | Not Active | Not Active | Not Active | Not Active | Not Active | Not Active | Not Active | 
8 | Cc1[nH]cnc1CN1CCc2c(c3ccccc3n2C)C1=O [ALOSETRON] | Not Active | Not Active | Not Active | Not Active | Not Active | Not Active | Not Active | Not Active |  | Not Active | Not Active | Not Active | Not Active | Not Active |  |  | Not Active | Not Active | Not Active | Not Active | pIC50 ([9]; read-out: IC50): 8.93; pKi ([9]; read-out: Ki): 9.58
